pEC50, pIC50, pKi: −log10 of the molar value.
Key:
[1] = target: T1, GABA-A receptor; alpha-1/beta-2/gamma-2 (Homo sapiens) (UniProt P14867+P47870+P18507); assay: Positive allosteric modulation of recombinant human GABAA alpha1beta2gamma2s receptor expressed in Xenopus laevis oocytes assessed as GABA-stimulated current amplitude at 300 uM measured for 2 min by electrophysiological method relative to control; format: cell-based
Homo sapiens [2] = species: Homo sapiens; assay: Positive allosteric modulation of human GABA-A alpha4beta3delta receptor expressed in mouse L(tk-) cells assessed as GABA-induced membrane potential at 1 uM incubated for 2.5 min by FLIPR assay relative to control; format: cell-based
[3] = Displacement of [3H]-Flumazenil from GABAA/BZD receptor in rat cortical membranes incubated for 40 mins by radioligand binding assay; format: cell membranes
[4] = Binding affinity to recombinant human GABA-A alpha2beta3gamma2 receptor expressed in L(tk) cells; format: cell-based
Xenopus laevis = assay: Anaesthetic activity in Xenopus laevis tadpoles assessed as dose causing loss of righting reflex measured every 10 mins up to 120 mins; format: functional, organism-based
[5] = target: T1, GABA-A receptor; alpha-1/beta-2/gamma-2 (Homo sapiens); assay: Positive allosteric modulation of human GABA-A alpha1beta2gamma2S receptor expressed in Xenopus laevis oocytes assessed as increase in GABA-induced chloride channel current at 100 uM by two-electrode voltage clamp method relative to control; format: cell-based
[6] = target: T2, GABA-A receptor; alpha-1/beta-2/gamma-2 (Homo sapiens, UniProt P14867+P18507+P47870); assay: Positive allosteric modulation of human GABA-A alpha1beta2gamma2S receptor expressed in Xenopus laevis oocytes assessed as increase in GABA-induced chloride channel current by two-electrode voltage clamp method relative to control; format: cell-based
T2 sequence (P14867 whole entry): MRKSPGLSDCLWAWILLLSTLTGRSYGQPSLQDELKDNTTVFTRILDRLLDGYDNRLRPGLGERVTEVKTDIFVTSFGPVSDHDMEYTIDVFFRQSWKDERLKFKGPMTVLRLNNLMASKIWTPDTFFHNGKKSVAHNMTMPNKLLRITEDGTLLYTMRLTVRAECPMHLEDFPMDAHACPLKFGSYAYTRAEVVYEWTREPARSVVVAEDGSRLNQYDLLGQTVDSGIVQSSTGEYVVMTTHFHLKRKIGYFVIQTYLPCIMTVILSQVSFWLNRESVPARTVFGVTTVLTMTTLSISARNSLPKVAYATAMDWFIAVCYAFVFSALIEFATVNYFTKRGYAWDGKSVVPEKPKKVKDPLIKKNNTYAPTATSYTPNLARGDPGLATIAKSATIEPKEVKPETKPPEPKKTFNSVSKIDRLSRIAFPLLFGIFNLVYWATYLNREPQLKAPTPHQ
T2 sequence (P47870 whole entry): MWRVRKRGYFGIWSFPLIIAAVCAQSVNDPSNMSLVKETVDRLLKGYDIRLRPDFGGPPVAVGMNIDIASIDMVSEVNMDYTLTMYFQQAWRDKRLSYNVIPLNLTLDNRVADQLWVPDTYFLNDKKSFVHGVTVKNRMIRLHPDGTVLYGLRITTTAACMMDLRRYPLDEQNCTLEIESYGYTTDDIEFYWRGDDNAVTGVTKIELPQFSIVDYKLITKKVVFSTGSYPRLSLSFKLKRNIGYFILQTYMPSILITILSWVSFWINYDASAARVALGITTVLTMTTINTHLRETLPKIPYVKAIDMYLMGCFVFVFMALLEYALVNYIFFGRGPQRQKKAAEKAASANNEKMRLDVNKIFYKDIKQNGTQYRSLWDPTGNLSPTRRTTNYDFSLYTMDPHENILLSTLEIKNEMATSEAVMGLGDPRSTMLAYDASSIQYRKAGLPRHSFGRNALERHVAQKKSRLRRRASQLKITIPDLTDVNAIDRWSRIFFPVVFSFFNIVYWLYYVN
T2 sequence (P18507 whole entry): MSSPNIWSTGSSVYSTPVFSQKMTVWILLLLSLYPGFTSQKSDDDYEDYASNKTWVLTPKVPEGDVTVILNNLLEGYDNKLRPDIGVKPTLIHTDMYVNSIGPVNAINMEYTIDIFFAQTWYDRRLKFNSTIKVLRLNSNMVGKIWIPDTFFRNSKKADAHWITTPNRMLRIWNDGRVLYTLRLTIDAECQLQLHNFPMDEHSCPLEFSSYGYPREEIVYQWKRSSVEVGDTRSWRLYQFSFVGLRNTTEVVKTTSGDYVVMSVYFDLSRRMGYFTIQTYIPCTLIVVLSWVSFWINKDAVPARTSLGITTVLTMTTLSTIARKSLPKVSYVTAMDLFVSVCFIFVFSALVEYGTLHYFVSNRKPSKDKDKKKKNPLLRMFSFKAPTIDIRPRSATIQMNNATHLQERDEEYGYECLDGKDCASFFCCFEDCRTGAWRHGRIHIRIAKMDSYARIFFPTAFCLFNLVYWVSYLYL

[7] = target: T1, GABA-A receptor; alpha-1/beta-2/gamma-2 (Homo sapiens); assay: Positive allosteric modulation of human GABA-A alpha1beta2gamma2S receptor expressed in Xenopus laevis oocytes assessed as increase in GABA-induced chloride channel current by two-electrode voltage clamp method; format: cell-based
[8] = Oral bioavailability in rat at 3 mg/kg; format: ADME, organism-based; settings: in vivo
Homo sapiens [9] = species: Homo sapiens; assay: Positive allosteric modulation of human GABA-A alpha4beta3delta receptor expressed in mouse L(tk-) cells assessed as GABA-induced membrane potential at 10 uM incubated for 2.5 min by FLIPR assay relative to control; format: cell-based
Homo sapiens [10] = species: Homo sapiens; assay: Positive allosteric modulation of human GABAA alpha4beta3gamma2 receptor expressed in mouse L(tk-) cells assessed as GABA-induced membrane potential at 10 uM incubated for 2.5 min by FLIPR assay relative to control; format: cell-based
[11] = target: GABA-A receptor; alpha-1/beta-3/gamma-2 (Homo sapiens) (UniProt P14867+P18507+P28472); assay: Positive allosteric modulation of human GABA-Aalpha1beta3gamma2 receptor expressed in mouse L(tk-) cells assessed as GABA-induced membrane potential at 10 uM incubated for 2.5 min by FLIPR assay relative to control; format: cell-based
[12] = Binding affinity to human GABA-A alpha4beta2delta receptor expressed in Xenopus laevis oocytes; format: cell-based
[13] = Binding affinity to human GABA-A alpha4beta3delta receptor expressed in Xenopus laevis oocytes; format: cell-based
Homo sapiens [14] = species: Homo sapiens; assay: Agonist activity at human GABA-A alpha4beta2delta receptor expressed in Xenopus laevis oocytes assessed as maximal GABA response by electrophysiology method relative to GABA; format: cell-based
Homo sapiens [15] = species: Homo sapiens; assay: Partial agonist activity at human GABA-A alpha4beta3delta receptor expressed in Xenopus laevis oocytes assessed as maximal GABA response by electrophysiology method relative to GABA; format: cell-based
[16] = target: Gamma-aminobutyric acid receptor subunit alpha-4/beta-1/delta (Homo sapiens) (UniProt P48169+O14764+P18505); assay: Partial agonist activity at human GABA-A alpha4beta1delta receptor expressed in Xenopus laevis oocytes assessed as maximal GABA response by electrophysiology method relative to GABA; format: cell-based
Homo sapiens [17] = species: Homo sapiens; assay: Selectivity ratio, ratio of EC50 for human GABA-A alpha4beta1delta receptor expressed in Xenopus laevis oocytes to EC50 for human GABA-A alpha4beta2delta receptor expressed in Xenopus laevis oocytes; format: cell-based
Homo sapiens [18] = species: Homo sapiens; assay: Selectivity ratio, ratio of EC50 for human GABA-A alpha4beta1delta receptor expressed in Xenopus laevis oocytes to EC50 for human GABA-A alpha4beta3delta receptor expressed in Xenopus laevis oocytes; format: cell-based
[19] = Displacement of [3H]-Flumazenil from GABAA/BZD receptor in Sprague-Dawley rat cerebral cortex incubated for 40 mins by liquid scintillation counting method
[20] = target: T3, GABA-A receptor; alpha-5/beta-3/gamma-2 (Homo sapiens) (UniProt P18507+P28472+P31644); assay: Inverse agonist activity at recombinant human GABA-A alpha5beta3gamma2 receptor expressed in mouse L(tk-) cells by whole-cell patch-Clamp method; format: cell-based
[21] = target: T4, GABA-A receptor; alpha-5/beta-3/gamma-2 (Homo sapiens, UniProt P18507+P28472+P31644); assay: Inverse agonist activity at recombinant human GABA-A alpha5beta3gamma2 receptor expressed in mouse L(tk-) cells by radioligand binding assay; format: cell-based
T4 sequence (P18507 whole entry): T2 sequence (P18507 whole entry)
T4 sequence (P28472 whole entry): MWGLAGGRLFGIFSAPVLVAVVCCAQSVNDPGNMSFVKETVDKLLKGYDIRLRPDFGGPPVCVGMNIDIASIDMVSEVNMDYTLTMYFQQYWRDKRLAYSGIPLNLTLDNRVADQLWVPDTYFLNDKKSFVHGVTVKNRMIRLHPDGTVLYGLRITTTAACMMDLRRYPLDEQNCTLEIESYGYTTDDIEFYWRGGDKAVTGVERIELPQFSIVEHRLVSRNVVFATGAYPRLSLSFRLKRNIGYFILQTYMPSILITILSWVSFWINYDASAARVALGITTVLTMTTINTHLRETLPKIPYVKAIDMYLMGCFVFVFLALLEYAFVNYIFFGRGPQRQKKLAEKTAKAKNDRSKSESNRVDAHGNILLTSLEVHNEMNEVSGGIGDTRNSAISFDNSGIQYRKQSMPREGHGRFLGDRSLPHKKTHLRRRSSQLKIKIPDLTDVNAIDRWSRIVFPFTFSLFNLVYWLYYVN
T4 sequence (P31644 whole entry): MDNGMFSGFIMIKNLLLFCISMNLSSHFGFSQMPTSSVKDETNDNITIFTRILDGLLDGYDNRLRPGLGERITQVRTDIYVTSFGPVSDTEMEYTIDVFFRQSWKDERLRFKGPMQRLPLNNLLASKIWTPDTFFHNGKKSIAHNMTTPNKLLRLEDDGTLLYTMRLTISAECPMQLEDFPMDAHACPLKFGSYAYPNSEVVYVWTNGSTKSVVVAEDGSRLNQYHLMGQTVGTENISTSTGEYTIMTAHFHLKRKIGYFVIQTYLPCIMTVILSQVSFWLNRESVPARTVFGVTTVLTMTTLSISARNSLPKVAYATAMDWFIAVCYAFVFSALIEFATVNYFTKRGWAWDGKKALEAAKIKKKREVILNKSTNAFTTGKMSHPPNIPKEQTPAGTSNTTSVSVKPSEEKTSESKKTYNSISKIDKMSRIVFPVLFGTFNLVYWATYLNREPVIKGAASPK

[22] = Displacement of [3H]-Flumazenil from GABAA/BZD receptor in rat cortical membranes; format: cell membranes
[23] = target: T2, GABA-A receptor; alpha-1/beta-2/gamma-2; assay: Positive allosteric modulation of human recombinant GABA-A alpha1beta2gamma2L receptor expressed in Xenopus laevis oocytes by two-electrode voltage clamp method; format: cell-based
[24] = target: T1, GABA-A receptor; alpha-1/beta-2/gamma-2 (Homo sapiens); assay: Positive allosteric modulation of human recombinant GABA-A alpha1beta2gamma2L receptor expressed in Xenopus laevis oocytes assessed as maximal current response by two-electrode voltage clamp method relative to control; format: cell-based
[25] = target: GABA-A receptor; anion channel; assay: Displacement of [35S]TBPS from Sprague-Dawley rat brain cortical membrane GABAA receptor incubated for 90 mins by scintillation counting method
[26] = target: T3, GABA-A receptor; alpha-5/beta-3/gamma-2 (Homo sapiens); assay: Inverse agonist activity at recombinant human GABA-A alpha5beta3gamma2 receptor expressed in Xenopus laevis oocytes relative to control; format: cell-based
[27] = Inhibition of BZD receptor (unknown origin); set-up: species or system Homo sapiens

C=C(C)[C@H]1CC[C@H](C)C[C@@H]1O
Activity [1]: 280%

O=C(Nc1c(-c2cccs2)nc2ccccn12)c1ccc(Cl)cc1
Activity (Homo sapiens [2]): 126%

CCCC(=O)Nc1nsc2[nH]c3ccc(C)cc3c(=O)c12
pKi [3]: 8.55

c1ccc(-c2nnc3c4ccccc4c(OCc4ccccn4)nn23)cc1
pKi [4]: 8.77

CC(C)C1CCCC(C(C)C)C1O (stereo not drawn)
pEC50 (Xenopus laevis): 4.85

CC(C)=CCOc1c2ccoc2cc2oc(=O)ccc12
Activity [5]: > 20%

CC1(C)O[C@H]1COc1c2ccoc2cc2oc(=O)ccc12 [OXYPEUCEDANIN]
Activity [5]: > 20%
pEC50 [6]: 4.60
Activity [7]: 547%

CCCCCc1nsc2[nH]c3ccc(C)cc3c(=O)c12
pKi [3]: 7.89

CC1=CCC(C(C)(C)O)CC1 (stereo not drawn)
Activity [1]: 91.2%

c1ccc(-c2nnc3c4c(c(OCc5ccccn5)nn23)C2CCC4CC2)cc1
pKi [4]: 7.59
bioavailability [8]: 33%

CC1CCCC(C)C1O (stereo not drawn)
pEC50 (Xenopus laevis): 4.88

O=C(Nc1c(-c2cccs2)nc2c(Br)cc(Br)cn12)c1ccc(Cl)cc1
Activity (Homo sapiens [9]): 975%
Activity (Homo sapiens [10]): 306%
Activity [11]: 407%

CC1(C)O[C@@H]1COc1c2occc2cc2ccc(=O)oc12
Activity [5]: > 20%

COc1c2ccoc2c(OCC=C(C)C)c2oc(=O)ccc12
Activity [5]: > 20%

c1ccc(COc2nn3c(-c4ccccc4)nnc3c3ccccc23)cc1
pKi [4]: 7.80

COc1ccccc1-c1oc2ccc(C)cc2c(=O)c1O
pEC50 [12]: 5.85
pEC50 [13]: 5.60
Imax (Homo sapiens [14]): 105%
Imax (Homo sapiens [15]): 105%
Imax [16]: 61%
Ratio EC50 (Homo sapiens [17]): 10
Ratio EC50 (Homo sapiens [18]): 10

CC(C)[C@H]1CC[C@@H](C)C[C@@H]1O
Activity [1]: 226%

O=C1C[C@@H](c2ccc(O)cc2)Oc2c1c(O)cc(O)c2-c1c(O)cc(O)c2c(=O)cc(-c3ccc(O)cc3)oc12
pKi [19]: 6.55

Cc1cc(-c2nncc3c(C(C)(C)C)c(OCc4ncnn4C)nn23)no1
Efficacy [20]: -55%
pKi [21]: 8.52

CCOC(=O)c1cnc2ccc(C(F)(F)F)cc2c1O
pKi [22]: 6.91

COc1ccc2ccc(=O)oc2c1CC=C(C)C [OSTHOLE]
Activity [5]: > 20%
pEC50 [6]: 4.85
Activity [7]: 116%

O=C1C[C@@H](c2ccc(O)cc2)Oc2cc(O)c(-c3c(O)cc(O)c4c(=O)cc(-c5ccc(O)cc5)oc34)c(O)c21
pKi [19]: 7.35

CCCc1cc2c(=O)c(-c3ccc4c(c3)OCO4)c(CC)oc2cc1OC(=O)CC
pEC50 [23]: 5.03
Emax [24]: 1080%

CC(C)=CCOc1c2occc2cc2ccc(=O)oc12
Activity [5]: > 20%

CCNC1=Nc2ccc(Cl)cc2C(C)(c2ccccc2)O1 (stereo not drawn) [ETIFOXINE]
pIC50 [25]: 5.17

Cc1cc(-c2nnc3c4ccccc4c(OCc4cn(C)nn4)nn23)no1
Efficacy [26]: -29%

OC1CCCCC1
Activity [1]: 30.1%

O=c1c2c[nH]c3c(c-2nn1-c1ccc(Cl)cc1)CCCC3
pIC50 [27]: 9.00

From ChEMBL document CHEMBL4346691, “GABA allosteric modulators: An overview of recent developments in non-benzodiazepine modulators” (Eur J Med Chem, 2019)
